Molecular target: Wild-type IDH1 (Homo sapiens (Human), UniProt O75874)
Assay: Biochemical assay for wild-type IDH1 enzyme (isocitrate to αKG)
Details: mean ± SEM
Procedure: IDH1 and IDH2 enzymes catalyze the conversion of isocitrate to αKG. Wild-type IDH1 (National Center for Biotechnology Information, Accession: NP_001269316.1) and IDH2 (National Center for Biotechnology Information, Accession: EAX02082.1) proteins containing N-terminal His-tag are expressed in E. coli and purified using nickel affinity chromatography by methods commonly used and well known to those skilled in the art. The enzyme assays are carried out in V-bottom 96 well polypropylene plates containing 100 mM Tris-HCl buffer at pH 7.5, 1 mM DTT, 0.005% TRITON™ X-100, 120 mM NaCl. For the IDH1 wild-type assay isocitrate, NADP^+ and MnCl2 are included at the concentrations of 85 μM, 50 μM and 20 μM respectively. For the IDH2 wild-type assay isocitrate, NADP^+ and MnCl2 are included at the concentrations of 30 μM, 50 μM and 10 μM respectively. Inhibitors dissolved in a DMSO stock solution are diluted in the reaction mixture at a final DMSO concentration of 4%. The enzyme assay is terminated (quenched) by adding ACN (50:50) containing d (d6-αKG) as an internal standard for mass spectrometry analysis. Ten microliters of reaction mixture is combined with 100 μL of water, 50 μL of 1 M O-benzylhydroxylamine in pyridine buffer (8.6% pyridine, pH 5), and 50 μL of 1 M EDC in pyridine buffer. Following derivatization at room temperature for one hour, samples are extracted with EtOAc (600 μL). […] of the upper layer is removed, dried under heated nitrogen, and reconstituted with MeOH/water (1:1) (100 μL). Ten μL of derivatized sample is injected onto an LC-MS system consisting of a Shimadzu Prominence 20A HPLC system and a Thermo Quantum Ultra™ triple quadrupole mass spectrometer. Analytes are separated on a Waters XBridge™ C18 column (2.1×50 mm, […]) with a flow rate of 0.6 mL/minute. Mobile phase A is 0.1% formic acid in water and mobile phase B is MeOH. The αKG signal detected is transformed into analyte concentration using a calibration curve generated using known αKG concentrations. […] IC50 values are obtained from the individual % inhibition values at different compound concentrations using a 4-parameter equation. These calculations are carried out using Activity Base (IDBS) or Screener (Genedata) data analysis programs.

Wild-type IDH1, sequence (O75874 whole entry): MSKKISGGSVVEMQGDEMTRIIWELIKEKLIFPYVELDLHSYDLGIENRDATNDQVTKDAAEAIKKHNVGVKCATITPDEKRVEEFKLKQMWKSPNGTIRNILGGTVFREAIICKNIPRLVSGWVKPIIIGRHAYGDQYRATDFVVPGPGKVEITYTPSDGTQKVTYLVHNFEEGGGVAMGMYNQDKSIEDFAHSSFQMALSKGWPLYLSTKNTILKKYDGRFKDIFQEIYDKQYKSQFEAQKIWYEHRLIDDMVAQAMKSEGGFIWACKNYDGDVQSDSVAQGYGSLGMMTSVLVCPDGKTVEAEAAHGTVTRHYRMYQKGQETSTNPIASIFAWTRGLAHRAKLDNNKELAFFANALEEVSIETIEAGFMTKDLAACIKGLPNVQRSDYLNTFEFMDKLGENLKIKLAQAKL

Row | SMILES | IC50
1 | C=CC(=O)N1CCN(C(CC2CC2)c2ccc([C@H](C)Nc3nccc(N4C(=O)OC[C@@H]4[C@@H](C)O)n3)cc2)CC1 (stereo partly shown) [Example 26] | 0.145 µM
2 | C=CC(=O)N1CCN(Cc2ccc([C@H](C)Nc3ncc(F)c(N4C(=O)OC[C@@H]4C(C)C)n3)cc2)CC1 [Example 5, (S)-3-(2-(((S)-1-(4-((4-acryloylpiperazin-1-yl)methyl)phenyl)ethyl)amino)-5-fluoropyrimidin-4-yl)-4-isopropyloxazolidin-2-one] | 2.46 ± 0.3 µM
3 | C=CC(=O)N1CCN(Cc2ccc([C@H](C)Nc3nc(F)cc(N4C(=O)OCC4(C)C)n3)cc2)CC1 [Example 11, (S)-3-(2-((1-(4-((4-acryloylpiperazin-1-yl)methyl)phenyl)ethyl)amino)-6-fluoropyrimidin-4-yl)-4,4-dimethyloxazolidin-2-one] | 2.2 µM
4 | C=CC(=O)N1CCN(Cc2ccc([C@H](C)Nc3nccc(N4C(=O)OCC4(C)C)n3)cc2)CC1 [Example 4, (S)-3-(2-((1-(4-((4-acryloylpiperazin-1-yl)methyl)phenyl)ethyl)amino)pyrimidin-4-yl)-4,4-dimethyloxazolidin-2-one] | 6.76 ± 1.35 µM

Second part, the compound after the results:

Row | IC50 | SMILES
5 | 1.56 ± 0.2 µM | C=CC(=O)N1CCN(Cc2ccc([C@H](C)Nc3nccc(N4C(=O)OC[C@@H]4C(C)C)n3)cc2)CC1 [Example 1, (S)-3-(2-(((S)-1-(4-((4-Acryloylpiperazin-1-yl)methyl)phenyl)ethyl)amino)pyrimidin-4-yl)-4-isopropyloxazolidin-2-one]
6 | 3.15 ± 0.07 µM | C=CC(=O)N1CCN(Cc2ccc([C@H](C)Nc3nccc(N4C(=O)OC[C@@H]4CC)n3)cc2)CC1 [Example 2, (S)-3-(2-(((S)-1-(4-((4-acryloylpiperazin-1-yl)methyl)phenyl)ethyl)amino)pyrimidin-4-yl)-4-ethyloxazolidin-2-one]
7 | 15.5 ± 0.5 µM | C=CC(=O)N1CCN(Cc2ccc([C@H](C)Nc3nccc(N4C(=O)OC[C@@H]4C)n3)cc2)CC1 [Example 3, (S)-3-(2-(((S)-1-(4-((4-acryloylpiperazin-1-yl)methyl)phenyl)ethyl)amino)pyrimidin-4-yl)-4-methyloxazolidin-2-one]

— patent publication US10696665B2, “Mutant IDH1 inhibitors” (Eli Lilly and Company, priority 2016, dated 2020)
